According to patent US7550451B2, “Progesterone receptor modulators with increased antigonadotropic activity for female birth control and hormone replacement therapy” (Bayer Schering Pharma AG, priority 2002, dated 2009):

Columns and labels:
Androgen receptor = biological target: T1, Androgen receptor (Rattus norvegicus, UniProt P15207); test: Receptor binding affinity, androgen receptor (competitive binding, 3H-metribolone); details: prostate cytosol of castrated rat; for AR relative molar binding affinity (RBA) a) against RU 1881: reference RU 1881 (metribolone); for AR relative molar binding affinity (RBA) b) against dihydrotestosterone (DHT): reference dihydrotestosterone
T1 construct: Prostate cytosol of the castrated rat; from tissue; host or cells: prostate cytosol of castrated rat
T1 sequence (P15207 1-902): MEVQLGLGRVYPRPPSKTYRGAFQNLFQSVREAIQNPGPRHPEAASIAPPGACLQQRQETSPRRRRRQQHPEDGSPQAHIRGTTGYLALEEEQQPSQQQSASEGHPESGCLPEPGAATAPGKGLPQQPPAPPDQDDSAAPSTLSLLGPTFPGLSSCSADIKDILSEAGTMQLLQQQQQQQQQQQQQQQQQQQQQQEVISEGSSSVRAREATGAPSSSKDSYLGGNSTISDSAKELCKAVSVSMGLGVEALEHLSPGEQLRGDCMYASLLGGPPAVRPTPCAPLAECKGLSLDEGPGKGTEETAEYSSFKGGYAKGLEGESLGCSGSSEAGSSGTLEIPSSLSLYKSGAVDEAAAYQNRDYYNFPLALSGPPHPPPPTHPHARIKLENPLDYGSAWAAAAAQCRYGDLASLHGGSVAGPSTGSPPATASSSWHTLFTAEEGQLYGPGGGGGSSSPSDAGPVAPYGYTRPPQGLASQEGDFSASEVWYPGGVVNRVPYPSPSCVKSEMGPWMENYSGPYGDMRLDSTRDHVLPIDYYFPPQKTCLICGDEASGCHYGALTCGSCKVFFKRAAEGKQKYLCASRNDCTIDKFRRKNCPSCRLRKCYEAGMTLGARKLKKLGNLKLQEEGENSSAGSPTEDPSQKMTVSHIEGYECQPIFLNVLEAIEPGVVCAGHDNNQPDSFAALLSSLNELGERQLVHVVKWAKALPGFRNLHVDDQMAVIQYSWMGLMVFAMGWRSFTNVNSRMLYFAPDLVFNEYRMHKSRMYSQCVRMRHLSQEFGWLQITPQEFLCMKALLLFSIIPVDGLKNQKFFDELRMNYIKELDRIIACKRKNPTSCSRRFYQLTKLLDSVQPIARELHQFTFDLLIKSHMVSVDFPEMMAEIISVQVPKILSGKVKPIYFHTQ
Protocol: (§1) The receptor binding affinity was determined by competitive binding of a specifically binding ^3H-labeled hormone (tracer) and the compound to be tested on receptors in the cytosol from animal target organs. In this case, receptor saturation and reaction equilibrium were sought.
(§2) The tracers and increasing concentrations of the compound to be tested (competitor) were co-incubated with the receptor-containing cytosol fraction at 0-4° C. over 18 hours. After separation of the unbonded tracer with carbon-dextran suspension, the receptor-bonded tracer portion was measured for each concentration, and the IC50 was determined from the concentration sequence. As a quotient of the IC50 values of the reference substance and the compound to be tested (×100%), the relative molar binding affinity (RBA) was calculated (RBA of the reference substance=100%).
Prostate cytosol of the castrated rat; prostates stored at −30° C.; buffer: TED with 10% glycerol as well as 2 μmol of triamcinolone acetonide. Tracer: ^3H-metribolone 4 nmol; reference substances: metribolone (RU 1881) or 5α-dihydrotestosterone.

adult female rats = test: Nidation-inhibiting test (antifertile effects in the perinidation phase); type: in vivo; details: day 5-7 of pregnancy, rat
Protocol: The determination of the progesterone-antagonistic activities was carried out on adult female rats in the nidation-inhibiting test. The principle of the test is described as follows: progesterone preserves pregnancy in all stages. An early-abortive action can accordingly be expected from competitive progesterone antagonists. Female rats (Schoe strain: WIST Tierzucht GmbH Schönwalde) with a weight of 180-200 g were subjected daily to a cycle control and paired up in proestrus. The beginning of pregnancy was determined by detecting sperm in the vaginal smear on the same day (=day 1 of pregnancy=d1 p.c.). From the 5th-7th day of pregnancy, the test substances were injected subcutaneously daily. On the 9th day, vaginal smears were taken, then the animals were autopsied and the uteri were prepared. The degeneration of implants and pathological, hemorrhagic and otherwise abnormal nidation sites were counted as abortions and are shown in Table 2.

Progesterone receptor = biological target: T2, Progesterone receptor (Oryctolagus cuniculus, UniProt P06186); test: Receptor binding affinity, progesterone receptor (competitive binding, 3H-ORG 2058); details: Progesterone = 100%; uterus cytosol of estradiol-primed rabbit
T2 construct: Uterus cytosol of the estradiol-primed rabbit; from tissue; host or cells: uterus cytosol of estradiol-primed rabbit
T2 sequence (P06186 1-930): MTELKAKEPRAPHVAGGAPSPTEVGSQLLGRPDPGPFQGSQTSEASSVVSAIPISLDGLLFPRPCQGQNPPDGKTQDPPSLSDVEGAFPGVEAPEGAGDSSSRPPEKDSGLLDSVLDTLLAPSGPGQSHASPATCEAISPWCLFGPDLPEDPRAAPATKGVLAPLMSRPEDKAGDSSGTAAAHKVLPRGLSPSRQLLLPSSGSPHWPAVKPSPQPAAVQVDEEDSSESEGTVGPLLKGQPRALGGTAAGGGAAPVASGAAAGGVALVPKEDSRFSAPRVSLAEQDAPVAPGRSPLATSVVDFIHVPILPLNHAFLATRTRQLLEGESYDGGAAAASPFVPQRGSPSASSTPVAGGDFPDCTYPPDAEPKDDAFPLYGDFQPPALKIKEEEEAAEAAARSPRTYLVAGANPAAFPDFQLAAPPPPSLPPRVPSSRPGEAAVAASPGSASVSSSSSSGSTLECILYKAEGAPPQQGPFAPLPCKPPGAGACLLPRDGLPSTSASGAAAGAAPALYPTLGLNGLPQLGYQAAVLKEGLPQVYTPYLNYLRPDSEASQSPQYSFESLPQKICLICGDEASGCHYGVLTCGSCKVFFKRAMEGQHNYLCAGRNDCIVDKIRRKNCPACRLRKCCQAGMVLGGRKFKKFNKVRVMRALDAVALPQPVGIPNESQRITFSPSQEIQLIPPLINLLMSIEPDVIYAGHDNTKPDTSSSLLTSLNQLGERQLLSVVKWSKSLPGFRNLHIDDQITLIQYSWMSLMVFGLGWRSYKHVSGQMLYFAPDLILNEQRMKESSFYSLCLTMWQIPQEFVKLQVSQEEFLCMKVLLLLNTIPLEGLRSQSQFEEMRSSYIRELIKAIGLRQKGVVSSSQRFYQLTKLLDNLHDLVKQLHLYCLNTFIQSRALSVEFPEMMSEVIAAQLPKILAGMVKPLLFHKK
Protocol: as §1, §2
Uterus cytosol of the estradiol-primed rabbit; homogenized in TED buffer (20 mmol of Tris/HCl, pH 7.4; 1 mmol of ethylenediamine tetraacetate, 2 mmol of dithiothreitol) with 250 mmol of saccharose; stored at −30° C. Tracer: ^3H-ORG 2058, 5 nmol; reference substance: progesterone.

Row | Structure (SMILES) | AR relative molar binding affinity (RBA) a) against RU 1881 (Androgen receptor) | AR relative molar binding affinity (RBA) b) against dihydrotestosterone (DHT) (Androgen receptor) | Rate of Animals with Complete Inhibition of Nidation (adult female rats; 1.0 mg/animal/day s.c.) | Rate of Animals with Complete Inhibition of Nidation (adult female rats; 3.0 mg/animal/day s.c.) | Rate of Animals with Complete Inhibition of Nidation (adult female rats; 10.0 mg/animal/day s.c.) | PR relative molar binding affinity (RBA) (Progesterone receptor) [%] | Rate of Animals with Complete Inhibition of Nidation (adult female rats; 0.03 mg/animal/day s.c.) | Rate of Animals with Complete Inhibition of Nidation (adult female rats; 0.1 mg/animal/day s.c.) | Rate of Animals with Complete Inhibition of Nidation (adult female rats; 0.3 mg/animal/day s.c.)
1 | C[C@]12C[C@H](c3ccc(/C=N/O)cc3)C3=C4CCC(=O)C=C4CC[C@H]3[C@@H]1CC[C@@H]2O [Example 1, 4-(17β-Hydroxy-3-oxoestra-4,9-dien-11β-yl)benzaldehyde-1(E)-oxime] | a) 17% | b) 24% | 0/5 | 0/5 | 5/5 | 26 | – | – | –
2 | CC1(O)CCC2C3CCC4=CC(=O)CCC4=C3C(c3ccc(C=NO)cc3)CC21C (stereo not drawn) [Example 2, 4-(17β-Hydroxy-17α-methyl-3-oxoestra-4,9-dien-11β-yl)benzaldehyde-1(E)-oxime] | a) 16% | b) 23% | 5/5 | – | – | 95 | 0/4 | 0/5 | 2/5
